# Patent publication US20010029304A1, “Cyclopentane heptan (ENE)OIC acid, 2-heteroarylalkenyl derivatives as therapeutic agents” (ALLERGAN, priority 1996, published 2001)
# Key:
# [1] = molecular target: T1, EP4 (Oryctolagus cuniculus, UniProt Q28691); assay: EP4-activity: relaxation of smooth muscle of isolated rabbit jugular vein; type: cell-based; conditions: nM printed only with EC50 in the table head
# T1 construct: smooth muscle of isolated rabbit jugular vein; from tissue; host or cells: isolated rabbit jugular vein smooth muscle
# T1 sequence (Q28691 whole entry): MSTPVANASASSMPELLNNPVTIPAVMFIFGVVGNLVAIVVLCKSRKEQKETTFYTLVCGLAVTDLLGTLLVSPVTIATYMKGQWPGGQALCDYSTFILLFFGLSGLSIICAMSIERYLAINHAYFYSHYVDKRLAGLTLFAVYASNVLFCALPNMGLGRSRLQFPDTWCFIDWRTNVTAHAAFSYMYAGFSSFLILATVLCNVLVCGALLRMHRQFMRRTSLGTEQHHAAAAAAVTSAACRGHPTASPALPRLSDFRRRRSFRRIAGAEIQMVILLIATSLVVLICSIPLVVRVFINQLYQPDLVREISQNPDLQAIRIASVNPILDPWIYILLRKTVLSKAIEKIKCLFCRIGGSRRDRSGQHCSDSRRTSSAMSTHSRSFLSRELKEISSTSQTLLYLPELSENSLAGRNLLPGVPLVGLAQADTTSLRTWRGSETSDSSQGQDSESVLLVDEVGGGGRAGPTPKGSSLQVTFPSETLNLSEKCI
# Method: (§1) Activity at different prostanoid receptors was measured in vitro in isolated smooth muscle preparations. FP-activity was measured as contraction of the isolated feline iris sphincter. EP4-activity was measured as relaxation of smooth muscle of isolated rabbit jugular vein. TP-vasoconstrictor activity was measured as contraction of rings of the isolated rat thoracic aorta. Effects on platelets from healthy human donors were measured by incubating platelet-rich plasma with the compounds described herein. Inhibition of aggregation was determined by the ability of the compounds described herein to inhibit platelet aggregation in platelet-rich plasma induced by 20 μM adenosine diphosphate (ADP).
# [2] = molecular target: T2, TP (Rattus norvegicus, UniProt P34978); assay: TP-vasoconstrictor activity: contraction of rings of the isolated rat thoracic aorta; type: cell-based; conditions: EC50 (nM) printed in the first part of the table head
# T2 construct: rings of the isolated rat thoracic aorta; from tissue; host or cells: rings of isolated rat thoracic aorta
# T2 sequence (P34978 1-341): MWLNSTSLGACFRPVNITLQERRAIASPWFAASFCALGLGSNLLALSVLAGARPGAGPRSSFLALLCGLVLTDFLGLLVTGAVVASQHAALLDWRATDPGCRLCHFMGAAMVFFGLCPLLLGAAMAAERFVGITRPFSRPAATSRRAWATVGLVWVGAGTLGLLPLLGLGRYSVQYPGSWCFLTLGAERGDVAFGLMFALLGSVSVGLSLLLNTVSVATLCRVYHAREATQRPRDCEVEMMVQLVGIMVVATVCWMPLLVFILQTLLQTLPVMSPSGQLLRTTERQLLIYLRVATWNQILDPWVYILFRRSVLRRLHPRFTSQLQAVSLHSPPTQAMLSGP
# Method: as §1
# [3] = tested on: Dog intraocular pressure; assay: Dog intraocular pressure (applanation pneumatonometry) with hyperemia/miosis; type: in vivo; conditions: for Dog IOP (1 day): 25 μl to the ocular surface, IOP before and at 6 hours after drug; for Hyp: first part of Hyp/Mlosis cell; for Mlosis: second part of Hyp/Mlosis cell
# Method: The compounds were prepared at the said concentrations in a vehicle comprising 0.1% polysorbate 80 and 10 mM tris (hydroxy methyl) aminomethane hydrochloride (TRIS) base. Dogs were treated by administering 25 μl to the ocular surface, the contralateral eye received vehicle as a control. Intraocular pressure was measured by applanation pneumatonometry. Dog intraocular pressure was measured immediately before drug administration and at 6 hours thereafter.
SMILES,IC25 EP4 [1] [nM],EC50 [2] [nM],Dog IOP (1 day) ([3]; 0.1%),Hyp ([3]; 0.1%),Mlosis ([3]; 0.1%),Dog IOP (1 day) ([3]; 0.01%),Hyp ([3]; 0.01%),Mlosis ([3]; 0.01%)
O=C(O)CCC/C=C\C[C@H]1C(O)CC(O)C1/C=C/C(O)CCc1cc(Br)c(Br)s1 (some centres unmarked),23,692,–,–,–,–,–,–
O=C(O)CCC/C=C\C[C@H]1C(O)CC(O)C1/C=C/C(O)CCc1sc2ccccc2c1Cl (some centres unmarked),21190,–,–,–,–,–,–,–
COC(/C=C/C1C(O)CC(O)[C@@H]1C/C=C\CCCC(=O)O)CCc1ccsc1C (some centres unmarked),100,–,–,–,–,–,–,–
Cc1cc(CCC(O)/C=C/C2C(O)CC(O)[C@@H]2C/C=C\CCCC(N)=O)cs1 (some centres unmarked),1630,–,0.1%/−3.6,0.6,pinpoint,–,–,–
NC(=O)CCC/C=C\C[C@H]1C(O)CC(O)C1/C=C/C(O)CCc1cc(Br)c(Br)s1 (some centres unmarked),165,–,–,–,–,–,–,–
COC(/C=C/C1C(O)CC(O)[C@@H]1C/C=C\CCCC(=O)O)CCc1ccco1 (some centres unmarked),57,–,–,–,–,–,–,–
NC(=O)CCC/C=C\C[C@H]1C(O)CC(O)C1/C=C/C(O)CCc1ccco1 (some centres unmarked),620,–,−4.4,1.0,pinpoint,−3.2,1.5,pinpoint
Cc1ccc(CCC(O)/C=C/C2C(O)CC(O)[C@@H]2C/C=C\CCCC(N)=O)o1 (some centres unmarked),3760,–,0.1%/−2.1,0.75,pinpoint,–,–,–
Cc1ccc(CCC(O)/C=C/C2C(O)CC(O)[C@@H]2C/C=C\CCCC(=O)O)o1 (some centres unmarked),23,> 10000,0.1%/−2.7,1.13,pinpoint,–,–,–
